Legend:
[1] = tested on: LNCaP; assay: FACS cell binding assay of sera from PSMA vaccinated mice; type: cell-based, human; settings: Table 4
Description: Various prostate cancer cell lines were used for this assay. […] The cell binding assay was performed as follows: LNCaP and PC3 cells (or TRAMP-C2PSMA and TRAMP C2) were plated in separate wells at 2×10^5 cells/well (50 μL) in a 96 well plate. Sera from PSMA vaccinated mice, as described in […], were diluted 1:50 with FACS buffer (PBS pH 7.4, 1% FBS, 25 mM HEPES, and 1 mM EDTA). Fifty μL of diluted J591-A antibody (mouse anti-human PSMA antibody, clone J591-A from ATCC) were added to the diluted test sera or FACS buffer (unstained samples) to achieve the appropriate cell numbers per well in the staining plate. All was mixed by pipetting and then kept on ice for 20 min. The cells were washed twice with FACS buffer; each wash was by centrifugation at 1200 RPM at 5° C. for 5 minutes. Fifty μL of secondary staining solution were added containing a 1:200 dilution of PE-labeled goat anti-mouse Ig (Sigma, cat P9670-5) and 0.25 μl of Live/Dead Aqua stain (Invitrogen, cat. #L34957) to each of the cell containing wells and kept on ice for 20 min. Cells were washed twice as described earlier. Washed cell pellets were resuspended in 125 uL FACS buffer and then 75 uL 4% paraformaldehyde solution were added to each well to fix the cells. Samples were kept on ice and protected from light for at least 15 min. Samples were run on FACS Canto II. Ten thousand live cell events were recorded for each sample. […]

[2] = tested on: human PSMA; assay: IFNγ ELISPOT of splenocytes, PSMA DNA constructs by PMED in Pasteur (HLA A2/DR1) mice; type: in vivo, mouse; settings: positive SFC>50
Text: Two human HLA transgenic mouse models were used to evaluate the presentation of various PSMA antigens by different HLAs and a human PSMA transgenic mouse model was used to assess the breaking of immune tolerance to human PSMA. The first HLA transgenic mouse model utilizes the HLA A2/DR1 mice (from the Pasteur Institute, Paris, France; also referred to as “Pasteur mice”). […] The second HLA transgenic mouse model uses mice that are knock in with human HLA A24 that is covalently linked to the human β-2-microglobulin at the H2bk locus. […] This model allows evaluation of antigen presentation in the context of human HLA A24.
Eight-to-10 week-old transgenic mice were immunized using PMED method with various PSMA DNA constructs in a prime/boost/boost regimen, two weeks apart between each vaccination. Alternatively, mice were primed with adenovirus vectors encoding the PSMA antigen at 1×10^9 viral particles in 50 μl (PBS) by intramuscular injection. The adenovirus vector (pShuttle-CMV vector from Stratagene) was modified to contain NheI and BgIII restriction sites within the multiple cloning site. The DNA encoding human PSMA modified was then restriction digested with NheI and BgIII, ligated into this vector and sequence confirmed. The pShuttle human PSMA modified vector was then recombined with the pAdEasy-1 vector and virus was propagated according to the AdEasy system (Stratagene). Twenty-days later, they were boosted with PMED as described above. In each of the regimens used, antigen specific T cell response was measured 7 days after the last immunization in an interferon-gamma (IFNγ) ELISPOT assay. The ELISPOT assay is similar to the sandwich enzyme-linked immunosorbent assay (ELISA). Briefly, a capture antibody specific to IFNγ BD Bioscience, #51-2525kc) is coated onto a polyvinylidene fluoride (PVDF) membrane in a microplate overnight at 4° C. The plate is blocked with serum/protein to prevent nonspecific binding to the antibody. After blocking, effector cells (such as splenocytes isolated from PSMA immunized mice) and targets (such as PSMA peptides from peptide library, target cells pulsed with peptides or tumor cells expressing the relevant antigens) or mitogen (which will stimulate splenocytes non-specifically to produce IFNγ[…] are added to the wells and incubated overnight at 37° C. in a 5% CO2 incubator. Cytokine secreted by effector cells are captured by the coating antibody on the surface of the PVDF membrane. After removing the cells and culture media, 100 μl of a biotinylated polyclonal anti-mouse IFNγ antibody (0.5 mg/ml-BD Bioscience, #51-1818 kz) was added to each of the wells for detection. The spots are visualized by adding streptavidin-horseradish peroxidase (HRP, BD Bioscience, #557630) and the precipitate substrate, 3-amino-9-ethylcarbazole (AEC), to yield a red color spot. Each spot represents a single cytokine producing T cell. In general, in the studies disclosed here the ELISpot assay was set up as follows: 5×10^5 splenocytes from PSMA immunized mice were cultured (1) in the presence of PSMA specific peptides derived from a PSMA peptide library (see Table 16) made of 15-amino acid peptides overlapping by 11 amino acids, (2) with known HLA A2.1 restricted PSMA specific peptides, or (3) with tumor cells. To measure the recognition of endogenous antigen presentation, splenocytes were cultured with a human HLA A2 prostate cancer cells (i.e. LNCaP, available from ATCC) that naturally express PSMA or cultured with HLA A2 tumor cells transduced with adenovirus encoding and thus expressing the human PSMA modified antigen. In addition, human PSMA ECD protein was added to the ELISpot assay to measure specifically CD4 IFNγ[…] producing cells. For controls where appropriate, HLA A2 restricted HER-2 specific peptide p168-175 or tumor cells not expressing PSMA or irrelevant protein such as BSA were used as a negative control in the IFNγ […]ELISpot assay. […]

PSMA modified: membrane-bound polypeptide of amino acids 15-750 of human PSMA, SEQ ID NO: 9; tested as DNA construct
Fold over background Average (+/−SD) ([1]; binding of serum anti-PSMA antibodies (1:50) to human prostate cancer cells LNCaP by FACS, background PC3): 6.01 (0.38) | # of positive ([1]; mice with serum binding to LNCaP by FACS / N): 4/4 | IFN-γ SFC/1 × 10^6 splenocytes ([2]; Table 2, HLA A2.1 restricted peptide PSMA p275, ( ) = standard deviation): 304 (21) SFC/1 × 10^6 splenocytes | IFN-γ SFC/1 × 10^6 splenocytes ([2]; Table 2, HLA A2.1 restricted peptide PSMA p627, ( ) = standard deviation): 222 (14) SFC/1 × 10^6 splenocytes | IFN-γ SFC/1 × 10^6 splenocytes ([2]; Table 2, HLA A2.1 restricted peptide PSMA p662, ( ) = standard deviation): 925.1 (77) SFC/1 × 10^6 splenocytes | IFN-γ SFC/1 × 10^6 splenocytes ([2]; Table 2, HLA A2.1 restricted peptide PSMA p663, ( ) = standard deviation): 1524.9 (45) SFC/1 × 10^6 splenocytes | IFN-γ SFC/1 × 10^6 splenocytes ([2]; Table 2, PC3 tumor cells (no PSMA, negative control), ( ) = standard deviation): 1 (1) SFC/1 × 10^6 splenocytes | IFN-γ SFC/1 × 10^6 splenocytes ([2]; Table 2, PSMA ECD protein, ( ) = standard deviation): 731 (16) SFC/1 × 10^6 splenocytes | IFN-γ SFC/1 × 10^6 splenocytes ([2]; Table 2, PSMA+ HLA A2.1 LNCaP tumor cells, ( ) = standard deviation): 96 (12) SFC/1 × 10^6 splenocytes | IFN-γ SFC/1 × 10^6 splenocytes ([2]; Table 2, target peptide PSA p64, ( ) = standard deviation): 2 (4) SFC/1 × 10^6 splenocytes

From patent US11110158B2, “Prostate-associated antigens and vaccine-based immunotherapy regimens” (Pfizer Inc., priority 2012, dated 2021)
